According to patent US11136313B2, “Compounds, compositions, and methods for modulating CFTR” (Proteostasis Therapeutics, Inc., priority 2015, dated 2021):

target: T1, ΔF508-CFTR (Homo sapiens, UniProt P13569, DEL508-508); assay: hBE equivalent current (Ieq) assay: AUC of equivalent chloride current after forskolin/VX-770 in primary lung epithelial cells homozygous for ΔF508; assay type: cell-based; settings: relative to CFTR amplifier (Compound A)+VX-809 (3 uM), compound at 10 uM and Compound A at 3 uM, 24 h treatment
T1 construct: Primary lung epithelial cells homozygous for the Cystic Fibrosis-causing ΔF508 mutation were differentiated for a minimum of 4 weeks; endogenous in cells; host or cells: primary lung epithelial cells (hBE) homozygous for ΔF508, differentiated at an air-liquid interface
Protocol: ii. hBE Equivalent Current (Ieq) Assay
Primary lung epithelial cells homozygous for the Cystic Fibrosis-causing ΔF508 mutation were differentiated for a minimum of 4 weeks in an air-liquid interface on Costar 24 well HTS filter plates prior to the equivalent current (Ieq) measurements. Cells were apically mucus-washed for 30 minutes 24 h prior to treatment with compounds. The basolateral media was removed and replaced with media containing the compound of interest diluted to its final concentration from DMSO stocks. Treated cells were incubated at 37° C. and 5% CO2 for 24 hours. At the end of the treatment period, the media was changed to the Ieq experimental solution for 2 hours before the experiment and plates are maintained in a CO2-free incubator during this period. The plates containing the cells were then placed in pre-warmed heating blocks at 36° C.±0.5 for 15 minutes before measurements are taken. The transepithelial voltage (VT) and conductance (GT) were measured using a custom 24 channel current clamp (TECC-24) with 24 well electrode manifold. The Ieq assay measurements were made following additions with standardized time periods: • 1. The baseline VT and GT values were measured for approximately 20 minutes. • 2. Benzamil was added to block ENaC for 15 minutes. • 3. Forskolin plus VX-770 were added to maximally activate ΔF508-CFTR for 27 minutes. • 4. Bumetanide was added to inhibit the NaK2Cl cotransporter and shut-off secretion of chloride.
The activity data captured was the area under the curve (AUC) for the traces of the equivalent chloride current. The AUC was collected from the time of the forskolin/VX-770 addition until the inhibition by bumetanide addition. Correction in response to compound treatment was scored as the increase in the AUC for compound-treated samples over that of vehicle-treated samples.
(+ indicates activity<50% of an CFTR amplifier (Compound A)+VX-809 (3 uM) with compound at 10 uM and Compound A at 3 uM; ++ indicates activity>50% of CFTR amplifier+VX-809 (3 uM) with compound at 10 uM and Compound A at 3 uM.

T1 sequence (P13569 with tags, fused parts or gaps DEL508-508): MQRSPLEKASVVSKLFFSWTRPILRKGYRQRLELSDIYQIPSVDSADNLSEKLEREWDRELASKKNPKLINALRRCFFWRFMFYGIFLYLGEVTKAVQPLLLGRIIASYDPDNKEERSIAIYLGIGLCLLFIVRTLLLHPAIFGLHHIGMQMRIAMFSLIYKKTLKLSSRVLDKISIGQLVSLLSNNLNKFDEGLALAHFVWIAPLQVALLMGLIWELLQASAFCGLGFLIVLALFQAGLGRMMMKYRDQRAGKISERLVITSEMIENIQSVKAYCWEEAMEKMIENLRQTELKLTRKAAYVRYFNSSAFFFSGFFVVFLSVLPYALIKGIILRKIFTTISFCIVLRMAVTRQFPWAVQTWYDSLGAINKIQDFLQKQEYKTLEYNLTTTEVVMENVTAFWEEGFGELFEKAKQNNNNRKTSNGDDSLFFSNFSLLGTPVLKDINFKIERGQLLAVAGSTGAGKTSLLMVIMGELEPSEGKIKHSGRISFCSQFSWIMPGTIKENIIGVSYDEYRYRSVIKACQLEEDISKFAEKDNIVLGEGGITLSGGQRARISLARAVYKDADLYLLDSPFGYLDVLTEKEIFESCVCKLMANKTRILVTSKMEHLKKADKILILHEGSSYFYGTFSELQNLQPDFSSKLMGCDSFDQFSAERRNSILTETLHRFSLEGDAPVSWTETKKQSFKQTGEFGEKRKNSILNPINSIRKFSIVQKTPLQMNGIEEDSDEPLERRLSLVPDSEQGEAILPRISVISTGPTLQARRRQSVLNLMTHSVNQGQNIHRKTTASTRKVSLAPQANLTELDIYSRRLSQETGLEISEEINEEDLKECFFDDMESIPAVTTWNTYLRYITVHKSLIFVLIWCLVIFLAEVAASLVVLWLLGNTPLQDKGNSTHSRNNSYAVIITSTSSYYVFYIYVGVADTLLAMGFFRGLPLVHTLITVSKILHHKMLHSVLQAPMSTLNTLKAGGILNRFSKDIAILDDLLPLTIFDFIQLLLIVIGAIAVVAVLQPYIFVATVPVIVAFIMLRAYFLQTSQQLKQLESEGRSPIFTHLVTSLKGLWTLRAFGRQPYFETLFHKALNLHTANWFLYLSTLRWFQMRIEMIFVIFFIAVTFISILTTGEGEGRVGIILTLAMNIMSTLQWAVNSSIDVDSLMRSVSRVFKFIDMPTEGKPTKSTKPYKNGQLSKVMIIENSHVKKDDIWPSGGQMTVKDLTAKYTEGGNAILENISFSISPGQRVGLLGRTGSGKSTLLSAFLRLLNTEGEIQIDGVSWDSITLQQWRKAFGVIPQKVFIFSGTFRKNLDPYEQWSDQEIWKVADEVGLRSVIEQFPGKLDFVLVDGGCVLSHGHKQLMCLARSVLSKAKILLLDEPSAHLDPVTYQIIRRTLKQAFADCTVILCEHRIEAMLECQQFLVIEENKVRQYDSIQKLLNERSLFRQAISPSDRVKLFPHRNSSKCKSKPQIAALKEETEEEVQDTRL

Compound	Activity
Cc1c(-c2cc(C(=O)O)c3c(OCc4ccccc4)ccc(C4CC4)c3n2)oc2ccccc12 [Compound 107, 5-(Benzyloxy)-8-cyclopropyl-2-(3-methyl-1-benzofuran-2-yl)quinoline-4-carboxylic acid]	++ (activity>50% of CFTR amplifier+VX-809 (3 uM) with compound at 10 uM and Compound A at 3 uM)
CCc1ccc(OCc2ccccc2)c2c(C(=O)O)cc(-c3oc4ccccc4c3C)nc12 [Compound 108, 5-(benzyloxy)-8-ethyl-2-(3-methyl-1-benzofuran-2-yl)quinoline-4-carboxylic acid]	++ (activity>50% of CFTR amplifier+VX-809 (3 uM) with compound at 10 uM and Compound A at 3 uM)
Cc1c(-c2cc(C(=O)O)c3c(OCc4ccccc4)ccc(C(C)C)c3n2)oc2ccccc12 [Compound 109, 5-(Benzyloxy)-2-(3-methyl-1-benzofuran-2-yl)-8-(propan-2-yl)quinoline-4-carboxylic acid]	++ (activity>50% of CFTR amplifier+VX-809 (3 uM) with compound at 10 uM and Compound A at 3 uM)
Cc1c(-c2cc(C(=O)O)c3c(OCc4ccccc4)ccc(F)c3n2)oc2ccccc12 [Compound 110, 5-(Benzyloxy)-8-fluoro-2-(3-methyl-1-benzofuran-2-yl)quinoline-4-carboxylic acid]	++ (activity>50% of CFTR amplifier+VX-809 (3 uM) with compound at 10 uM and Compound A at 3 uM)
Cc1c(-c2cc(C(=O)O)c3c(OCc4ccccc4)ccc(Cl)c3n2)oc2ccccc12 [Compound 111, 5-(Benzyloxy)-8-chloro-2-(3-methyl-1-benzofuran-2-yl)quinoline-4-carboxylic acid]	+ (activity<50% of an CFTR amplifier (Compound A)+VX-809 (3 uM) with compound at 10 uM and Compound A at 3 uM)
Cc1c(-c2cc(C(=O)O)c3c(OCc4ccccc4)ccc(C#N)c3n2)oc2ccccc12 [Compound 112, 5-(benzyloxy)-8-cyano-2-(3-methyl-1-benzofuran-2-yl)quinoline-4-carboxylic Acid]	++ (activity>50% of CFTR amplifier+VX-809 (3 uM) with compound at 10 uM and Compound A at 3 uM)
CCc1ccc(C)c2nc(-c3oc4ccccc4c3C)cc(C(=O)O)c12 [Compound 113, 5-Ethyl-8-methyl-2-(3-methyl-1-benzofuran-2-yl)quinoline-4-carboxylic acid]	+ (activity<50% of an CFTR amplifier (Compound A)+VX-809 (3 uM) with compound at 10 uM and Compound A at 3 uM)
Cc1c(-c2cc(C(=O)O)c3c(OCc4cccnc4)ccc(C)c3n2)oc2ccccc12 [Compound 114, 8-Methyl-2-(3-methyl-1-benzofuran-2-yl)-5-(pyridin-3-ylmethoxy)quinoline-4-carboxylic acid]	+ (activity<50% of an CFTR amplifier (Compound A)+VX-809 (3 uM) with compound at 10 uM and Compound A at 3 uM)
Cc1c(-c2cc(C(=O)O)c3c(OCc4ccccn4)ccc(C)c3n2)oc2ccccc12 [Compound 115, 8-Methyl-2-(3-methyl-1-benzofuran-2-yl)-5-(pyridin-2-ylmethoxy)quinoline-4-carboxylic acid]	+ (activity<50% of an CFTR amplifier (Compound A)+VX-809 (3 uM) with compound at 10 uM and Compound A at 3 uM)
Cc1c(-c2cc(C(=O)O)c3c(NCc4ccccc4)ccc(C)c3n2)oc2ccccc12 [Compound 116, 5-(Benzylamino)-8-methyl-2-(3-methyl-1-benzofuran-2-yl)quinoline-4-carboxylic Acid]	++ (activity>50% of CFTR amplifier+VX-809 (3 uM) with compound at 10 uM and Compound A at 3 uM)
Cc1c(-c2cc(C(=O)O)c3cc(OC(F)(F)F)cc(C)c3n2)oc2ccccc12 [Compound 117, 8-Methyl-2-(3-methyl-1-benzofuran-2-yl)-6-(trifluoromethoxy)quinoline-4-carboxylic acid]	++ (activity>50% of CFTR amplifier+VX-809 (3 uM) with compound at 10 uM and Compound A at 3 uM)
Cc1c(-c2cc(C(=O)O)c3cc(OC(F)F)cc(C)c3n2)oc2ccccc12 [Compound 118, 6-(Difluoromethoxy)-8-methyl-2-(3-methyl-1-benzofuran-2-yl)quinoline-4-carboxylic acid]	++ (activity>50% of CFTR amplifier+VX-809 (3 uM) with compound at 10 uM and Compound A at 3 uM)
Cc1c(-c2cc(C(=O)O)c3cc(OCC(F)F)cc(C)c3n2)oc2ccccc12 [Compound 119, 6-(2,2-Difluoroethoxy)-8-methyl-2-(3-methyl-1-benzofuran-2-yl)quinoline-4-carboxylic acid]	+ (activity<50% of an CFTR amplifier (Compound A)+VX-809 (3 uM) with compound at 10 uM and Compound A at 3 uM)
Cc1c(-c2cc(C(=O)O)c3c(OC(F)F)ccc(C)c3n2)oc2ccccc12 [Compound 120, 5-(Difluoromethoxy)-8-methyl-2-(3-methyl-1-benzofuran-2-yl)quinoline-4-carboxylic acid]	++ (activity>50% of CFTR amplifier+VX-809 (3 uM) with compound at 10 uM and Compound A at 3 uM)
Cc1c(-c2cc(C(=O)O)c3c(OC(F)(F)F)ccc(C)c3n2)oc2ccccc12 [Compound 121, 8-Methyl-2-(3-methyl-1-benzofuran-2-yl)-5-(trifluoromethoxy)quinoline-4-carboxylic acid]	+ (activity<50% of an CFTR amplifier (Compound A)+VX-809 (3 uM) with compound at 10 uM and Compound A at 3 uM)
Cc1c(-c2cc(C(=O)O)c3c(OCC(F)F)ccc(C)c3n2)oc2ccccc12 [Compound 122, 5-(2,2-Difluoroethoxy)-8-methyl-2-(3-methyl-1-benzofuran-2-yl)quinoline-4-carboxylic acid]	++ (activity>50% of CFTR amplifier+VX-809 (3 uM) with compound at 10 uM and Compound A at 3 uM)
Cc1oc2ccccc2c1-c1cc(C(=O)O)c2c(OC(F)F)ccc(C)c2n1 [Compound 123, 5-(Difluoromethoxy)-8-methyl-2-(2-methyl-1-benzofuran-3-yl)quinoline-4-carboxylic acid]	+ (activity<50% of an CFTR amplifier (Compound A)+VX-809 (3 uM) with compound at 10 uM and Compound A at 3 uM)
Cc1oc2ccccc2c1-c1cc(C(=O)O)c2c(OCC(F)F)ccc(C)c2n1 [Compound 124, 5-(2,2-Difluoroethoxy)-8-methyl-2-(2-methyl-1-benzofuran-3-yl)quinoline-4-carboxylic acid]	+ (activity<50% of an CFTR amplifier (Compound A)+VX-809 (3 uM) with compound at 10 uM and Compound A at 3 uM)
Cc1c(-c2cc(C(=O)O)c3c(C)ccc(C)c3n2)oc2c(C)cccc12 [Compound 125, 2-(3,7-Dimethyl-1-benzofuran-2-yl)-5,8-dimethylquinoline-4-carboxylic acid]	++ (activity>50% of CFTR amplifier+VX-809 (3 uM) with compound at 10 uM and Compound A at 3 uM)
Cc1ccc2oc(-c3cc(C(=O)O)c4c(C)ccc(C)c4n3)c(C)c2c1 [Compound 127, 2-(3,5-Dimethylbenzofuran-2-yl)-5,8-dimethylquinoline-4-carboxylic acid]	++ (activity>50% of CFTR amplifier+VX-809 (3 uM) with compound at 10 uM and Compound A at 3 uM)
Cc1ccc(C)c2c(C(=O)O)cc(-c3oc4cccc(C)c4c3C)nc12 [Compound 128, 2-(3,4-Dimethyl-1-benzofuran-2-yl)-5,8-dimethylquinoline-4-carboxylic acid]	+ (activity<50% of an CFTR amplifier (Compound A)+VX-809 (3 uM) with compound at 10 uM and Compound A at 3 uM)
Cc1c(-c2cc(C(=O)O)c3c(C)ccc(C)c3n2)oc2c(Cl)cccc12 [Compound 129, 2-(7-Chloro-3-methylbenzofuran-2-yl)-5,8-dimethylquinoline-4-carboxylic acid]	+ (activity<50% of an CFTR amplifier (Compound A)+VX-809 (3 uM) with compound at 10 uM and Compound A at 3 uM)
Cc1c(-c2cc(C(=O)O)c3c(C)ccc(C)c3n2)oc2c(F)cccc12 [Compound 130, 2-(7-Fluoro-3-methyl-1-benzofuran-2-yl)-5,8-dimethylquinoline-4-carboxylic acid]	+ (activity<50% of an CFTR amplifier (Compound A)+VX-809 (3 uM) with compound at 10 uM and Compound A at 3 uM)
Cc1c(-c2cc(C(=O)O)c3c(C)ccc(C)c3n2)oc2c(OCc3ccccc3)cccc12 [Compound 132, 2-[7-(Benzyloxy)-3-methyl-1-benzofuran-2-yl]-5,8-dimethylquinoline-4-carboxylic acid]	++ (activity>50% of CFTR amplifier+VX-809 (3 uM) with compound at 10 uM and Compound A at 3 uM)
CCc1ccc(OCc2ccccc2)c2c(C(=O)O)cc(-c3sc4ccccc4c3C)nc12 [Compound 133, 5-(Benzyloxy)-8-ethyl-2-(3-methyl-1-benzothiophen-2-yl)quinoline-4-carboxylic acid]	++ (activity>50% of CFTR amplifier+VX-809 (3 uM) with compound at 10 uM and Compound A at 3 uM)
